According to ChEMBL document CHEMBL1938373, “Structure-based design, synthesis and biological evaluation of N-pyrazole, N'-thiazole urea inhibitors of MAP kinase p38α” (Eur J Med Chem, 2012):
Activity calls are given as the source filed them. The calls are words filed in the database; no cut-off is given here.

Key:
[1] = target: T1, Mitogen-activated protein kinase 14 (Homo sapiens, UniProt Q16539)
[2] = Solubility of the compound; format: physicochemical
[3] = target: T1, Mitogen-activated protein kinase 14; assay: Binding affinity to N-terminus His-tagged human p38alpha expressed in Escherichia coli BL21 DE3 at 1 nM to 10 uM after 5 hrs by fluorescence analysis
[4] = target: T1, Mitogen-activated protein kinase 14; assay: Inhibition of p38alpha-mediated MK2 phosphorylation in anisomysin-stimulated human HeLa cells at 0.5 to 50 uM after 2 hrs by immunoblot analysis; format: cell-based
[5] = target: T1, Mitogen-activated protein kinase 14; assay: Inhibition of N-terminus His-tagged human p38alpha expressed in Escherichia coli BL21 DE3 using GST-tagged ATF2 as substrate after 90 mins by HTRF assay
[6] = target: T1, Mitogen-activated protein kinase 14; assay: Inhibition of p38alpha-mediated MK2 phosphorylation in anisomysin-stimulated human HeLa cells after 2 hrs by immunoblot analysis

T1 sequence (Q16539 whole entry): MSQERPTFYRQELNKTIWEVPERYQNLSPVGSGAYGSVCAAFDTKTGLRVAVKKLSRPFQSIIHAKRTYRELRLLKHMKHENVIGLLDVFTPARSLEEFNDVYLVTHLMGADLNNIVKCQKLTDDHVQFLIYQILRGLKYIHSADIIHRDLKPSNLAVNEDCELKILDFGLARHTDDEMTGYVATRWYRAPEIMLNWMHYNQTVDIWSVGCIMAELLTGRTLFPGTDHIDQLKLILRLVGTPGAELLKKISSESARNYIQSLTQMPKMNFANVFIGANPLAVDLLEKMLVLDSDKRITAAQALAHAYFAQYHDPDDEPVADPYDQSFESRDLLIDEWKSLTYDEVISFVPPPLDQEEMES

SMILES	Kd [1] [nM]	other results
Cc1ccc(-n2nc(C(C)(C)C)cc2NC(=O)Nc2nc(CCOCc3ccncc3)cs2)cc1	586	
O=C(O)Cc1ccc(-n2nc(C3CCCC3)cc2NC(=O)Nc2nc(CCOCc3ccccc3)cs2)cc1	901	
O=C(Nc1ccc(Cl)c(C(F)(F)F)c1)Nc1nc(CCOCc2ccccc2)cs1		solubility [2]: Insoluble
NC(COCc1ccccc1)c1csc(NC(=O)Nc2ccc(Cl)c(F)c2)n1 (stereo not drawn)	13400	
Cc1ccc(-n2nc(C(C)(C)C)cc2NC(=O)Nc2nccs2)cc1	990	
O=C(O)Cc1cccc(-n2nc(C3CCCC3)cc2NC(=O)Nc2nc(CCOCc3ccccc3)cs2)c1	580	
O=C(Nc1nc(CCOCc2ccccc2)cs1)c1cc(F)cc(N2CCOCC2)c1		Activity [3]: inactive
O=C(O)Cc1cccc(-n2nc(C3CC3)cc2NC(=O)Nc2nc(CCOCc3ccccc3)cs2)c1	14700	
CC(C)(C)c1cc(NC(=O)Nc2nc(CCOCc3ccccc3)cs2)n(-c2cccc(CC(=O)O)c2)n1	920	
CCOC(=O)Cc1ccc(-n2nc(C(C)(C)C)cc2NC(=O)Nc2nccs2)cc1	675	IC50 [6]: 6000 nM; IC50 [5]: 639 nM

The next lines start with results.

Kd [1] [nM]	SMILES	other results
303	Cc1ccc(-n2nc(C(C)(C)C)cc2NC(=O)Nc2nc(CCOCc3ccc(F)cc3)cs2)cc1	
287	CC(C)(C)c1cc(NC(=O)Nc2nc(CCOCc3ccccc3)cs2)n(-c2ccc(CC(=O)O)cc2)n1	
382	Cc1ccc(-n2nc(C(C)(C)C)cc2NC(=O)Nc2nc(CCOCc3ccccc3)cs2)cc1	
196	CC(C)(C)c1cc(NC(=O)Nc2nccs2)n(-c2ccc(CC(=O)O)cc2)n1	inhibition [4]: inactive; IC50 [5]: 135 nM
